From patent US20230391781A1, “MALT1 MODULATORS AND USES THEREOF” (Rheos Medicines, Inc., priority 2020, published 2023)
In brackets after ≈: the same amount, converted by molar mass.

Key:
[1] = High Throughput Dialysis (HTD) Human Plasma Protein Binding Assay; format: in vitro ADME; details: pooled human plasma, pH 7.4, equilibrium dialysis, 37° C., read-out: Human PPB (% Unbound)
Method: Human plasma protein binding of various compounds of formula (I) were evaluated using the equilibrium dialysis method described herein.
The dialysis membrane strips (HTD % a/b, catalog number 1101, HTDialysis LLC, Gales Ferry, CT, USA) were soaked in ultra-pure water at room temperature for approximately 1 hour. Each membrane strip containing 2 membranes was separated and soaked in 20:80 ethanol/water (v/v) for approximately 20 minutes, after which they were ready for use or were stored in the solution at 2-8° C. for up to a month. Prior to the experiment, the membrane was rinsed three times and soaked for 20 minutes in ultra-pure water.
On the day of experiment, the human plasma (BiolVT, catalog number […], sodium heparin or EDTA-K2 anticoagulant, multiple individuals pooled) was thawed by running under cold tap water and centrifuged at 3220 rpm for 5 minutes to remove any clots. The pH value of the resulting plasma was confirmed to be 7.0-8.0.
The test compounds and warfarin control (Stru Chem, catalog number SC-16139) were dissolved in dimethyl sulfoxide (DMSO) to obtain 10 mM stock solutions. DMSO working solutions were prepared at 400 μM. To prepare the loading matrix, the compound working solutions (5 μL) were added in a 1:200 ratio to blank human plasma (995 μL) and mixed thoroughly.
The time zero (T0) samples to be used for recovery determination were prepared as follows: 50 μL aliquots of loading matrix were transferred in triplicate to the sample collection plate. The samples were immediately matched with opposite blank buffer (basic solution (14.2 g/L Na2HPO4 and 8.77 g/L NaCl in deionized water) titrated with acidic solution (15.6 g/L NaH2PO4·2H2O and 8.77 g/L NaCl in deionized water) to pH 7.4±0.1) to obtain a final volume of 100 μL of 1:1 matrix/dialysis buffer (v/v) in each well. 500 μL stop solution (200 ng/mL tolbutamide and 200 ng/mL labetalol in acetonitrile) were added to these TO samples. They were then stored at 2-8° C. for further processing along with other post-dialysis samples.
To load the dialysis device (96-well equilibrium dialysis plate, model 96b, catalog number 1006. HTDialysis LLC, Gales Ferry, CT, USA), an aliquot of 150 μL of the loading matrix was transferred to the donor side of each dialysis well in triplicate, and 150 μL of the dialysis buffer was loaded to the receiver side of the well. The dialysis plate was placed in a humidified incubator at 37° C. with 5% CO2 on a shaking platform that rotated slowly (about 100 rpm) for 4 hours.
At the end of the dialysis, aliquots of 50 μL of the samples were taken from both the buffer side and the matrix side of the dialysis device. These samples were transferred into new 96-well plates (polypropylene, 2.2 mL/well, catalog number DWP-22-96-SQ-U-C-L. Apricot). Each sample was mixed with an equal volume of opposite blank matrix (buffer or matrix) to reach a final volume of 100 μL of 1:1 matrix/dialysis buffer (v/v) in each well. All samples were further processed by adding 500 μL of stop solution containing internal standards. The mixture was vortexed and centrifuged at 4000 rpm for about 20 minutes. An aliquot of 100 μL of supernatant of all the samples was then removed for LC-MS/MS analysis. Test compound concentrations in matrix and buffer samples were expressed as peak area ratios (PAR) of analyte/internal standard (no standard curve).
The single blank samples were prepared by transferring 50 μL of blank matrix to a 96 well plate (polypropylene. 2.2 mL/well, catalog number DWP-22-96-SQ-U-C-L, Apricot) and adding 50 μL of blank PBS buffer to each well. The blank plasma must match the species of plasma used in the plasma side of the well. Then the matrix-matched samples were further processed by adding 500 μL of stop solution containing internal standards, following the same sample processing method as the dialysis samples. […]

[2] = test system: IL-2 in Jurkat (ATCC, clone E6.1) cells stimulated with anti-CD3/28/2; test: Jurkat IL-2 Assay; format: cell-based; details: Homo sapiens; IL-2 inhibition, Jurkat cells, 30 min compound then anti-CD3/28/2 stimulation for 24 hours; mean value if tested more than once; read-out: IC50
Summary of the method: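 Jurkat E6.1 T cells in RPMI/10% FBS (below passage 25) were preincubated with a compound dose-response for 30 min, then stimulated with soluble anti-CD3/28/2 for 24 h. IL-2 in the supernatant was measured by MSD immunoassay and viability by CellTiter-Glo luminescence. IC50 came from a 4-parameter fit, reported as ranges, with the mean used where tested repeatedly.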

full length MALT1 = full length MALT1 (Homo sapiens (Human), UniProt Q9UDY8); test: MALT1 Biochemical Assay; details: 15 nM enzyme, 30 μM peptide substrate Ac-Leu-Arg-Ser-Arg-Rh110-dPro, 30 min pre-incubation, 60 min reaction; mean value if tested more than once
Summary of the method: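 Full-length human MALT1 was pre-incubated with compound for 30 min, then cleaved a fluorogenic peptide for 60 min in 50 mM Hepes pH 7.5 with 0.8 M sodium citrate and 1 mM DTT. The reaction was quenched with 10 mM iodoacetate and fluorescence was read at 485/520 nm. IC50 came from four-parameter logistic fits of percent inhibition.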

[3] = Thermodynamic Solubility (Ts) Assay in Fasted State Simulated Intestinal Fluid (FaSSIF); format: physicochemical; details: thermodynamic from solid, FaSSIF pH 6.5, shake flask, 25° C., HPLC-UV
Method: The solubilities of various compounds of formula (I) were determined using a thermodynamic solubility assay. The thermodynamic solubility assay employed the shake flask method followed by HPLC-UV analysis. The following stepwise procedure was followed:
Samples of no less than 2.0 mg were weighed into the lower chambers of Whatman mini-uniprep vials (catalog number UN203NPUORG) and 450 μL of FaSSIF media (0.056% (w/v) lecithin, 0.161% (w/v) sodium taurocholate, 0.39% (w/v) monobasic potassium phosphate, 0.77% (w/v) potassium chloride, deionized H2O, pH 6.5) was added into each vial.
After the buffer was added, the filter pistons of the mini-uniprep vials were placed to the position of the liquid level to ensure the full contact of buffer and compound with the filter during the incubation.
The samples were then vortexed for 2 minutes, after which they were incubated at 25° C. with shaking (880 rpm) for 24 hours.
The samples were then centrifuged at 4000 rpm (20° C.) for 10 min.
The miniunipreps were then compressed to prepare filtrates, and the test concentration of the compound in the filtrate was determined using HPLC-UV (Waters XBridge C18, 4.6*100 mm column; mobile phase A: 0.1% TFA in H2O; mobile phase B: 0.1% TFA in acetonitrile). At least 5 UV standard solutions (e.g. amiodarone hydrochloride, carbamazepine, dexamethasone) were injected into the HPLC from low to high concentration subsequently followed by testing of the thermodynamic solubility supernatants in duplicate. The solubilities of the tested compounds are given in μg/mL.

full length MALT1, sequence (Q9UDY8 whole entry): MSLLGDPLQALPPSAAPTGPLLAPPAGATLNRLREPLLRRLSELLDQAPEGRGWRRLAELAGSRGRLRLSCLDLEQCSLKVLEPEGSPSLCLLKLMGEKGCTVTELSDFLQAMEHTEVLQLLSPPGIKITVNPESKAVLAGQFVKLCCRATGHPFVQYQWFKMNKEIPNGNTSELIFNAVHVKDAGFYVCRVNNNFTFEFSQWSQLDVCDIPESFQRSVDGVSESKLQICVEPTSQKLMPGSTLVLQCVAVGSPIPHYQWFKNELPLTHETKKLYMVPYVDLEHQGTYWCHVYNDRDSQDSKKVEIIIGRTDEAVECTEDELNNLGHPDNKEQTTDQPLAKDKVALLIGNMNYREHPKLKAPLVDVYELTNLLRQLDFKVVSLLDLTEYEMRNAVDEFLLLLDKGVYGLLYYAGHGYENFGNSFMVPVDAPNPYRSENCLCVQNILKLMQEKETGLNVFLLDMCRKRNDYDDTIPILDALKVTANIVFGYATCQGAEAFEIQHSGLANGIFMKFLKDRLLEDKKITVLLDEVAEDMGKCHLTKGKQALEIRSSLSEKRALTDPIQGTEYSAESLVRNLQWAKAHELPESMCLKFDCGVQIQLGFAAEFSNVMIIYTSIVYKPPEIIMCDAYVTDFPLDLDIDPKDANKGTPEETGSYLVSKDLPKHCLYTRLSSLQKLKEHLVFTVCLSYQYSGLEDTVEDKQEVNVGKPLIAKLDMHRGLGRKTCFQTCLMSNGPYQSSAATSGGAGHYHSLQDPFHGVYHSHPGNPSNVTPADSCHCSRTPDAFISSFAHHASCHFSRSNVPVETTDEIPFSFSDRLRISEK

Structure (SMILES) | fraction unbound at 4 h, 2 µM [1] | IC50 [2] [nM] | IC50 (full length MALT1) [nM] | solubility at 24 h [3] [µg/mL]
CO[C@@H](C)c1c(Nc2ccc([C@H](N(C)C(=O)[C@H]3CC[C@H](C(N)=O)CC3)C(F)(F)F)cc2)cnc2nc(Cl)nn12 [Compound 8.1, (1r,4S)—N1-((S)-1-(4-((2-chloro-7-((S)-1-methoxyethyl)-[1,2,4]triazolo[1,5-a]pyrimidin-6-yl)amino)phenyl)-2,2,2-trifluoroethyl)-N1-methylcyclohexane-1,4-dicarboxamide] | 0.08 to 0.2 | 100 to 1000 | < 100 | 
CO[C@@H](C)c1c(Nc2ccc([C@H](N(C)C(=O)C3CCN(C)CC3)C(F)(F)F)cc2)cnc2nc(Cl)nn12 [Compound 5.1, N—((S)-1-(4-((2-chloro-7-((S)-1-methoxyethyl)-[1,2,4]triazolo[1,5-a]pyrimidin-6-yl)amino)phenyl)-2,2,2-trifluoroethyl)-N,1-dimethylpiperidine-4-carboxamide] | > 0.2 | 100 to 1000 | 100 to 1000 | > 1750
CO[C@@H](C)c1c(Nc2ccc([C@H](N(C)C(=O)C3CCN(S(C)(=O)=O)C3)C(F)(F)F)cc2)cnc2nc(Cl)nn12 (stereo partly drawn) [Compound 3.10, N-[(1S)-1-[4-({2-chloro-7-[(1S)-1-methoxyethyl]-[1,2,4]triazolo[1,5-a]pyrimidin-6-yl}amino)phenyl]-2,2,2-trifluoroethyl]-1-methanesulfonyl-N-methylpyrrolidine-3-carboxamide] | 0.08 to 0.2 | 100 to 1000 | 100 to 1000 | 
CO[C@@H](C)c1c(Nc2ccc([C@H](N(C)C(=O)[C@H]3CC[C@H](C(=O)O)CC3)C(F)(F)F)cc2)cnc2nc(Cl)nn12 [Compound 7.1, (1S,4r)-4-(((S)-1-(4-((2-chloro-7-((S)-1-methoxyethyl)-[1,2,4]triazolo[1,5-a]pyrimidin-6-yl)amino)phenyl)-2,2,2-trifluoroethyl)(methyl)carbamoyl)cyclohexane-1-carboxylic acid] | 0.08 to 0.2 | > 1000 | 100 to 1000 | > 1750
CO[C@@H](C)c1c(Nc2ccc([C@H](N(C)C(=O)C3CCS(=O)(=O)CC3)C(F)(F)F)cc2)cnc2nc(Cl)nn12 [Compound 1.1, N-[(1S)-1-[4-({2-chloro-7-[(1S)-1-methoxyethyl]-[1,2,4]triazolo[1,5-a]pyrimidin-6-yl}amino)phenyl]-2,2,2-trifluoroethyl]-N-methyl-1,1-dioxo-1λ^6-thiane-4-carboxamide] | > 0.2 | 100 to 1000 | < 100 | 250 to 1750 (≈ 435 to 3040 µM)
CC(=O)N1CCC(C(=O)N(C)[C@@H](c2ccc(Nc3cnc4nc(Cl)nn4c3C(C)C)cc2)C(F)(F)F)CC1 [Compound 1.19, 1-acetyl-N-[(1S)-1-(4-{[2-chloro-7-(propan-2-yl)-[1,2,4]triazolo[1,5-a]pyrimidin-6-yl]amino}phenyl)-2,2,2-trifluoroethyl]-N-methylpiperidine-4-carboxamide] | < 0.08 | < 100 | < 100 | < 250
CO[C@@H](C)c1c(Nc2ccc([C@H](N(C)C(=O)C3CCC(F)(F)CC3)C(F)(F)F)cc2)cnc2nc(Cl)nn12 [Compound 1.8, N-[(1S)-1-[4-({2-chloro-7-[(1S)-1-methoxyethyl]-[1,2,4]triazolo[1,5-a]pyrimidin-6-yl}amino)phenyl]-2,2,2-trifluoroethyl]-4,4-difluoro-N-methylcyclohexane-1-carboxamide] | < 0.08 | 100 to 1000 | 100 to 1000 | < 250

The next lines start with the values.

fraction unbound at 4 h, 2 µM [1] | IC50 [2] [nM] | IC50 (full length MALT1) [nM] | solubility at 24 h [3] [µg/mL] | Structure (SMILES)
> 0.2 | 100 to 1000 | < 100 | 250 to 1750 (≈ 440 to 3080 µM) | CO[C@@H](C)c1c(Nc2ccc([C@H](N(C)C(=O)C3CCN(C(C)=O)CC3)C(F)(F)F)cc2)cnc2nc(Cl)nn12 [Compound 3.1, 1-acetyl-N—((S)-1-(4-((2-chloro-7-((S)-1-methoxyethyl)-[1,2,4]triazolo[1,5-a]pyrimidin-6-yl)amino)phenyl)-2,2,2-trifluoroethyl)-N-methylpiperidine-4-carboxamide]
0.08 to 0.2 | 100 to 1000 | 100 to 1000 | 250 to 1750 (≈ 419 to 2940 µM) | CO[C@@H](C)c1c(Nc2ccc([C@H](N(C)C(=O)[C@H]3CC[C@H](C(=O)N(C)C)CC3)C(F)(F)F)cc2)cnc2nc(Cl)nn12 [Compound 8.3, (1r,4S)—N1-((S)-1-(4-((2-chloro-7-((S)-1-methoxyethyl)-[1,2,4]triazolo[1,5-a]pyrimidin-6-yl)amino)phenyl)-2,2,2-trifluoroethyl)-N1,N4,N4-trimethylcyclohexane-1,4-dicarboxamide]
0.08 to 0.2 | 100 to 1000 | < 100 | 250 to 1750 (≈ 440 to 3080 µM) | CO[C@H](C)c1c(Nc2ccc([C@H](N(C)C(=O)C3CCN(C(C)=O)CC3)C(F)(F)F)cc2)cnc2nc(Cl)nn12 [Compound 11.1, 1-acetyl-N—((S)-1-(4-((2-chloro-7-((R)-1-methoxyethyl)-[1,2,4]triazolo[1,5-a]pyrimidin-6-yl)amino)phenyl)-2,2,2-trifluoroethyl)-N-methylpiperidine-4-carboxamide]
0.08 to 0.2 | 100 to 1000 | < 100 | < 250 | CO[C@@H](C)c1c(Nc2ccc([C@H](N(C)C(=O)C3CCN(C(=O)C4CC4)CC3)C(F)(F)F)cc2)cnc2nc(Cl)nn12 [Compound 4.1, N—((S)-1-(4-((2-chloro-7-((S)-1-methoxyethyl)-[1,2,4]triazolo[1,5-a]pyrimidin-6-yl)amino)phenyl)-2,2,2-trifluoroethyl)-1-(cyclopropanecarbonyl)-N-methylpiperidine-4-carboxamide]
